From patent US20230303599A1, “PRODRUGS OF PHOSPHONAMIDE NUCLEOTIDE ANALOGUES AND THEIR PHARMACEUTICAL USE” (priority 2020, published 2023)
pEC50: −log10 of the molar value. ≈ marks a conversion by molar mass, not a printed value.

Experiments:
[1] = Kinetic solubility analysis; type: physicochemical; conditions: 1× PBS, 24.2 °C, aqueous buffer, kinetic from dmso stock; pH 7.4 PBS, 1% DMSO, 24-hour incubation at ambient temperature
Summary of the method: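 Compounds from 10 mM DMSO stocks were incubated in 0.1 N HCl or 1× PBS pH 7.4 (1.0% DMSO, 100 μM maximum theoretical) for 24 h at 24.2-27.5 °C, then vacuum filtered. Filtrates were quantified in μM by chemiluminescent nitrogen detection against a calibration curve, corrected for background nitrogen; values for adjacent ring-nitrogen compounds were raised ~25%.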

[2] = Cytotoxicity assay in MT-4 cells; type: cell-based; conditions: human, uninfected MT-4 cells, average of at least two independent experiments, read-out: MT4 CC50
Summary of the method: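 Uninfected MT-4 cells were incubated 5 days at 37 °C with 1:3 serially diluted compound in RPMI (10% FBS), with 10 μM puromycin as baseline cytotoxicity. Viability was read by CellTiter-Glo luminescence. Values are concentrations giving 50% luminescence decrease, from sigmoidal dose-response fits.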

[3] = test system: HBV; assay: Antiviral (HBV) assay in primary human hepatocytes (PHHs); type: cell-based; conditions: Hepatitis B virus, Hepatocyte, 120 h; HBV (GTD) infected PHH, 5 days, HBV DNA in supernatant; average of at least two independent experiments
Method: Example 106: Antiviral (HBV) Assay in Primary Human Hepatocytes (PHHs)
Cryopreserved PHH were thawed, recovered by centrifugation at 100 g in cryopreserved hepatocyte recovery medium (Thermo Fisher Scientific; CM7500), and plated on collagen matrix (Life Technologies; Catalog Number: R-011-K) coated T225 flasks (Corning CellBIND, Catalog Number: 3293) at a density of 25E6 live cells in 60 mls media. Cells were plated in William's E medium (Thermo Fisher Scientific; A1217601) supplemented with 3.6% hepatocyte thawing and plating supplement (Thermo Fisher Scientific, A15563), 5% fetal bovine serum (Thermo Fisher Scientific; 16000-036), 1 μM dexamethasone (Thermo Fisher Scientific, A15563), and 0.2% Torpedo antibiotic mix (Bioreclamation; Z990008). The plating medium was removed after 14 hours and the cells were subsequently cultured in maintenance medium: William's E medium supplemented with 4% hepatocyte maintenance supplement (Thermo Fisher Scientific; AI15564), 2% fetal bovine serum, 0.1μ M dexamethasone, 1.5% DMSO (Sigma-Aldrich, St. Louis, MO; D8418), and 0.2% Torpedo antibiotic mix. Approximately 24 hours after plating, PHH were infected with HepAD38-derived GTD virus at 500 viral genome equivalents per cell in PHH maintenance medium supplemented with 4% PEG 8000 (Promega, Madison, WI; V3011). Infections were allowed to proceed for 24 hours before removing the remaining extracellular virions by washing with maintenance medium three times. After allowing viral infection to take place for 3 days, the infected cells were harvested from the flasks by trypsinization (0.25X in PBS without Ca/Mg, 25 minutes) following a 4 minute 0.5X Versene (Life Technologies Catalog Number: 15040-066) treatment and two PBS washes. Trypsinized cells were inactivated in 10% FBS containing maintenance medium, centrifuged 6 minutes at 50 g, resuspended in hepatocyte maintenance medium, filtered through a 40 uM cell strainer, and adjusted to a density of 0.25E6 cells/ml. Infected cells were seeded on 384 well collagen coated plates (Greiner, Austria) at a density of 20,000 cells/well containing serially diluted compounds of the present disclosure or DMSO (0.5%) in a final volume of 80 μl. The assay plates were incubated for a period of 5 days and the antiviral activity of the test compounds were assayed by detecting the presence of HBV DNA in the culture supernatant using the QuantiGene™ 2.0 nucleic acid quantification kit (Affymetrix, Santa Clara, CA).

[4] = Cytotoxicity assay in primary human hepatocytes (PHHs); type: cell-based; conditions: HBV-infected primary human hepatocytes, HBV-infected PHH, Cell Titer Glo, average of at least two independent experiments
Method: Example 107: Cytotoxicity Assay in Primary Human Hepatocytes (PHHs)
The HBV-infected primary human hepatocytes are seeded (20K cells/well in 80 uL of Media) in 384well collagen coated plates pre-spotted with compounds. After 5 days, 40 ul of cell supernatant is removed to quantify HBV DNA levels as described in Example 106. Then, 40 ul Cell Titer Glo Reagent (Promega Catalog Number: G7572) is added to the remaining cells and luminescence is measured on the EnVision microplate reader.

C[C@H](Cn1cnc2c(N)ncnc21)OCP(=O)(NC(C)(C)C(=O)OC1CC2(CCCCC2)C1)NC(C)(C)C(=O)OC1CC2(CCCCC2)C1 (stereo partly drawn) [Example 86, Di(spiro[3.5]nonan-2-yl) 2,2′-(((((1-(6-amino-9H-purin-9-yl)propan-2-yl)oxy)methyl)phosphoryl)bis(azanediyl))(R)-bis(2-methylpropanoate)]
solubility kinetic at 24 h [1]: 2 µg/mL (≈ 2.85 µM) | CC50 at 5 days [2]: 3.73 µM | pEC50 [3]: 8.50 | CC50 at 5 days [4]: > 100 nM

C[C@H](Cn1cnc2c(N)ncnc21)OCP(=O)(NC(C)(C)C(=O)O[C@H]1CC[C@H](C(F)(F)F)CC1)NC(C)(C)C(=O)O[C@H]1CC[C@H](C(F)(F)F)CC1 [Example 21, Bis(trans-4-(trifluoromethyl)cyclohexyl) 2,2′-((((((R)-1-(6-amino-9H-purin-9-yl)propan-2-yl)oxy)methyl)phosphoryl)bis(azanediyl))bis(2-methylpropanoate)]
solubility kinetic at 24 h [1]: 39 µg/mL (≈ 51.5 µM) | CC50 at 5 days [2]: 4.47 µM | pEC50 [3]: 8.45 | CC50 at 5 days [4]: > 100 nM

C[C@H](Cn1cnc2c(N)ncnc21)OCP(=O)(NC(C)(C)C(=O)OCC1CC2(C1)CC1(CCC1)C2)NC(C)(C)C(=O)OCC1CC2(C1)CC1(CCC1)C2 [Example 57, Bis(dispiro[3.1.3^6.1^4]decan-2-ylmethyl) 2,2′-(((((1-(6-amino-9H-purin-9-yl)propan-2-yl)oxy)methyl)phosphoryl)bis(azanediyl))(R)-bis(2-methylpropanoate)]
solubility kinetic at 24 h [1]: < 1 µg/mL | CC50 at 5 days [2]: 6.62 µM | pEC50 [3]: 8.33 | CC50 at 5 days [4]: > 100 nM

C[C@H](Cn1cnc2c(N)ncnc21)OCP(=O)(NC(C)(C)C(=O)O[C@H](C)C1CCCCC1)NC(C)(C)C(=O)O[C@H](C)C1CCCCC1 [Example 55, Bis((R)-1-cyclohexylethyl) 2,2′-((((((R)-1-(6-amino-9H-purin-9-yl)propan-2-yl)oxy)methyl)phosphoryl)bis(azanediyl))bis(2-methylpropanoate)]
solubility kinetic at 24 h [1]: < 1 µg/mL | CC50 at 5 days [2]: 9.42 µM | pEC50 [3]: 8.20 | CC50 at 5 days [4]: > 100 nM

CCC(C)(C)CCOC(=O)C(C)(C)NP(=O)(CO[C@H](C)Cn1cnc2c(N)ncnc21)NC(C)(C)C(=O)OCCC(C)(C)CC [Example 54, Bis(3,3-dimethylpentyl) 2,2′-(((((1-(6-amino-9H-purin-9-yl)propan-2-yl)oxy)methyl)phosphoryl)bis(azanediyl))(R)-bis(2-methylpropanoate)]
solubility kinetic at 24 h [1]: 12 µg/mL (≈ 18.4 µM) | CC50 at 5 days [2]: 6.72 µM | pEC50 [3]: 8.35 | CC50 at 5 days [4]: > 100 nM

C[C@H](Cn1cnc2c(N)ncnc21)OCP(=O)(NC(C)(C)C(=O)OCC1CC2(C1)CC(F)(F)C2)NC(C)(C)C(=O)OCC1CC2(C1)CC(F)(F)C2 [Example 58, Bis((6,6-difluorospiro[3.3]heptan-2-yl)methyl) 2,2′-(((((1-(6-amino-9H-purin-9-yl)propan-2-yl)oxy)methyl)phosphoryl)bis(azanediyl))(R)-bis(2-methylpropanoate)]
solubility kinetic at 24 h [1]: 51 µg/mL (≈ 68.4 µM) | CC50 at 5 days [2]: 3.68 µM | pEC50 [3]: 8.90 | CC50 at 5 days [4]: > 100 nM

CCCCCCOC(=O)C(C)(C)NP(=O)(CO[C@H](C)Cn1cnc2/c(=N\Cc3oc(=O)oc3C)n(Cc3oc(=O)oc3C)cnc21)NC(C)(C)C(=O)OCCCCCC [Example 84, Dihexyl 2,2′-(((((1-(1-((5-methyl-2-oxo-1,3-dioxol-4-yl)methyl)-6-(((5-methyl-2-oxo-1,3-dioxol-4-yl)methyl)imino)-1,6-dihydro-9H-purin-9-yl)propan-2-yl)oxy)methyl)phosphoryl)bis(azanediyl))(R,E)-bis(2-methylpropanoate)]
solubility kinetic at 24 h [1]: 8 µg/mL (≈ 9.41 µM) | CC50 at 5 days [2]: 10.6 µM | pEC50 [3]: 8.47 | CC50 at 5 days [4]: > 100 nM

C[C@H](Cn1cnc2c(N)ncnc21)OCP(=O)(NC(C)(C)C(=O)OC1CC(C2CCC2)C1)NC(C)(C)C(=O)OC1CC(C2CCC2)C1 (stereo partly drawn) [Example 90, Di([1,1′-bi(cyclobutan)]-3-yl) 2,2′-(((((1-(6-amino-9H-purin-9-yl)propan-2-yl)oxy)methyl)phosphoryl)bis(azanediyl))(R)-bis(2-methylpropanoate)]
solubility kinetic at 24 h [1]: 7 µg/mL (≈ 10.4 µM) | CC50 at 5 days [2]: 5.51 µM | pEC50 [3]: 8.53 | CC50 at 5 days [4]: > 100 nM

C[C@H](Cn1cnc2c(N)ncnc21)OCP(=O)(NC(C)(C)C(=O)OCC1CCCCC1)NC(C)(C)C(=O)OCC1CCCCC1 [Example 46, Bis(cyclohexylmethyl) 2,2′-(((((1-(6-amino-9H-purin-9-yl)propan-2-yl)oxy)methyl)phosphoryl)bis(azanediyl))(R)-bis(2-methylpropanoate)]
solubility kinetic at 24 h [1]: < 1 µg/mL | CC50 at 5 days [2]: 4.16 µM | pEC50 [3]: 8.60 | CC50 at 5 days [4]: > 100 nM

CCC(CC)COC(=O)C(C)(C)NP(=O)(CO[C@H](C)Cn1cnc2c(N)ncnc21)NC(C)(C)C(=O)OCC(CC)CC [Example 2, Bis(2-ethylbutyl) 2,2′-(((((1-(6-amino-9H-purin-9-yl)propan-2-yl)oxy)methyl)phosphoryl)bis(azanediyl))(R)-bis(2-methylpropanoate)]
solubility kinetic at 24 h [1]: 65 µg/mL (≈ 104 µM) | CC50 at 5 days [2]: 6.09 µM | pEC50 [3]: 9.16 | CC50 at 5 days [4]: > 1000 nM

C[C@H](Cn1cnc2c(N)ncnc21)OCP(=O)(NC(C)(C)C(=O)O[C@@H]1C[C@@H]2C[C@@H]2C1)NC(C)(C)C(=O)O[C@@H]1C[C@@H]2C[C@@H]2C1 [Example 60, Di((1R,3R,5S)-bicyclo[3.1.0]hexan-3-yl) 2,2′-((((((R)-1-(6-amino-9H-purin-9-yl)propan-2-yl)oxy)methyl)phosphoryl)bis(azanediyl))bis(2-methylpropanoate)]
solubility kinetic at 24 h [1]: 76 µg/mL (≈ 123 µM) | CC50 at 5 days [2]: 3.31 µM | pEC50 [3]: 8.84 | CC50 at 5 days [4]: > 100 nM

CCCCCCOC(=O)C(C)(C)NP(=O)(CO[C@H](C)Cn1cnc2c(=N)n(Cc3oc(=O)oc3C)cnc21)NC(C)(C)C(=O)OCCCCCC [Example 83, Dihexyl 2,2′-(((((1-(6-imino-1-((5-methyl-2-oxo-1,3-dioxol-4-yl)methyl)-1,6-dihydro-9H-purin-9-yl)propan-2-yl)oxy)methyl)phosphoryl)bis(azanediyl))(R)-bis(2-methylpropanoate)]
solubility kinetic at 24 h [1]: 33 µg/mL (≈ 44.7 µM) | CC50 at 5 days [2]: 6.6 µM | pEC50 [3]: 8.67 | CC50 at 5 days [4]: > 100 nM

CCCCCCOC(=O)C(C)(C)NP(=O)(CO[C@H](C)Cn1cnc2c(N)ncnc21)NC(C)(C)C(=O)OCCCCCC [Example 1, Dihexyl 2,2′-(((((1-(6-amino-9H-purin-9-yl)propan-2-yl)oxy)methyl)phosphoryl)bis(azanediyl))(R)-bis(2-methylpropanoate)]
solubility kinetic at 24 h [1]: 33 µg/mL (≈ 52.7 µM) | CC50 at 5 days [2]: 4.99 µM | pEC50 [3]: 8.71 | CC50 at 5 days [4]: > 100 nM

C[C@H](Cn1cnc2c(N)ncnc21)OCP(=O)(NC(C)(C)C(=O)O[C@H]1C[C@@H](C(C)(C)C)C1)NC(C)(C)C(=O)O[C@H]1C[C@@H](C(C)(C)C)C1 [Example 51, Bis((1S,3S)-3-(tert-butyl)cyclobutyl) 2,2′-((((((R)-1-(6-amino-9H-purin-9-yl)propan-2-yl)oxy)methyl)phosphoryl)bis(azanediyl))bis(2-methylpropanoate)]
solubility kinetic at 24 h [1]: 6 µg/mL (≈ 8.85 µM) | CC50 at 5 days [2]: 7.25 µM | pEC50 [3]: 8.22 | CC50 at 5 days [4]: > 100 nM
